Measurements reported in patent US20250144067A1, “PERSONALIZED STARVATION THERAPY FOR CANCER” (Faeth Therapeutics, Inc., priority 2021, published 2025).
Structures can show the parent of a compound that is named as a salt. Where two headings read alike, the source gives them in different places.

Columns and labels:
[1] = test system: NCI-H292 lung cancer cells; assay: FDA drug screening, complete media vs cholesterol-free media without statin (TABLE 1); assay type: cell-based, human
[2] = test system: NCI-H292 lung cancer cells; assay: FDA drug screening, complete media vs cholesterol-free media with simvastatin (TABLE 2); assay type: cell-based, human
[3] = Complete minus Cholesterol-free, greater than 0 enhanced anti-cancer activity, about 0 neutral, below 0 antagonist
[4] = NCI-H292 cells, FDA drug library screen, cholesterol-free media without statin
[5] = NCI-H292 cells, FDA drug library screen, complete media
[6] = NCI-H292 cells, cholesterol-free media with simvastatin 0.04 μM, FDA drug library screen (TABLE 2)
[7] = NCI-H292 cells, complete media, FDA drug library screen (TABLE 2)
[8] = complete media minus cholesterol-free media + simvastatin (0.04 μM), >0 enhanced anti-cancer activity, about 0 neutral, <0 antagonist
[9] = Complete minus Cholesterol-free, >0 enhanced anti-cancer activity, about 0 neutral, <0 antagonist
[10] = NCI-H292 cells, cholesterol-free media without statin
[11] = NCI-H292 cells, FDA drug library screen, cholesterol-free media with simvastatin 0.04 μM
[12] = complete media vs cholesterol-free media + simvastatin (0.04 μM), >0 enhanced anti-cancer activity, about 0 neutral, <0 antagonist
[13] = NCI-H292 cells, cholesterol-free media without statin, FDA drug library screen
[14] = NCI-H292 cells, complete media, FDA drug library screen
[15] = NCI-H292 cells, cholesterol-free media with simvastatin 0.04 μM, […]
[16] = NCI-H292 cells, complete media, […]
[17] = complete media minus cholesterol-free media + simvastatin, […]
[18] = Complete minus Cholesterol-free, […]
[19] = NCI-H292 cells, cholesterol-free media with simvastatin 0.04 μM, cell growth value in FDA drug screen
[20] = NCI-H292 cells, complete media, cell growth value in FDA drug screen
[21] = complete media minus cholesterol-free media + simvastatin, >0 enhanced anti-cancer activity, about 0 neutral, <0 antagonist
[22] = complete vs cholesterol-free media, >0 enhanced anti-cancer activity, about 0 neutral, <0 antagonist
[23] = NCI-H292 cells, FDA library drug in cholesterol-free media with simvastatin 0.04 μM
[24] = NCI-H292 cells, FDA library drug in complete media
[25] = complete vs cholesterol-free media, greater than 0 enhanced anti-cancer activity, about 0 neutral, below 0 antagonists
[26] = NCI-H292 cells, drug in cholesterol-free media with simvastatin 0.04 μM
[27] = NCI-H292 cells, drug in complete media

Cc1nc(Nc2ncc(C(=O)Nc3c(C)cccc3Cl)s2)cc(N2CCN(CCO)CC2)n1 [Dasatinib (hydrochloride)]
Difference [1, 3]: −0.10 | Cholesterol-free [1, 4]: 0.3831 | Complete [1, 5]: 0.2841 | Cholesterol-free media + simvastatin (0.04 μM) [2, 6]: 0.2818 | Complete Media [2, 7]: 0.268 | Difference [2, 8]: −0.01

C[C@@H]1O[C@@H]1P(=O)(O)O [Fosfomycin (sodium)]
Difference [1, 9]: −0.22 | Cholesterol-free [1, 10]: 1.096 | Complete ([1]; NCI-H292 cells, complete media): 0.8782 | Cholesterol-free media + simvastatin (0.04 μM) [2, 11]: 1.163 | Complete Media [2, 5]: 1.004 | Difference [2, 12]: −0.16

CNC(=O)c1c(C)oc2cc(Oc3ncnc4cc(OC)c(OC)cc34)ccc12 [Fruquintinib]
Difference [1, 9]: 0.02 | Cholesterol-free [1, 13]: 0.9702 | Complete [1, 14]: 0.994 | Cholesterol-free media + simvastatin (0.04 μM) [2, 11]: 1.198 | Complete Media [2, 5]: 1.059 | Difference [2, 12]: −0.14

C[N+](C)(C)C[C@H](O)CC(=O)[O-].Cl [L-Carnitine (hydrochloride)]
Cholesterol-free [1, 10]: 1.478 | Difference ([1]; complete vs cholesterol-free media, […]): −0.31 | Cholesterol-free media + simvastatin (0.04 μM) [2, 15]: 0.7755 | Complete Media [2, 16]: 0.7998 | Difference [2, 17]: 0.02

Gadoxetate (Disodium)
Difference [1, 18]: −0.26 | Cholesterol-free [1, 10]: 1.164 | Complete ([1]; NCI-H292 cells, complete media): 0.9023 | Cholesterol-free media + simvastatin (0.04 μM) [2, 11]: 1.553 | Complete Media [2, 5]: 1.778 | Difference [2, 17]: 0.22

N[C@@H](Cc1cc(I)c(Oc2cc(I)c(O)c(I)c2)c(I)c1)C(=O)O.[Na] [L-Thyroxine (sodium)]
Difference [1, 9]: −0.07 | Cholesterol-free [1, 13]: 1.137 | Complete [1, 14]: 1.071 | Cholesterol-free media + simvastatin (0.04 μM) [2, 19]: 0.8676 | Complete Media [2, 20]: 0.8889 | Difference [2, 21]: 0.02

Benztropine (mesylate)
Cholesterol-free [1]: 0.859 | Complete [1]: 0.7883 | Difference [1]: −0.07 | Cholesterol-free media + simvastatin (0.04 μM) [2]: 0.7872 | Complete Media [2]: 0.8586 | Difference [2]: 0.07

CN1Cc2c(Cl)cc(Cl)cc2[C@H](c2cccc(S(=O)(=O)NCCOCCOCCNC(=O)NCCCCNC(=O)NCCOCCOCCNS(=O)(=O)c3cccc([C@@H]4CN(C)Cc5c(Cl)cc(Cl)cc54)c3)c2)C1 [Tenapanor]
Cholesterol-free [1, 13]: 0.6884 | Complete [1, 14]: 0.8628 | Difference [1, 22]: 0.17 | Cholesterol-free media + simvastatin (0.04 μM) [2, 19]: 1.602 | Complete Media [2, 20]: 1.62 | Difference [2, 21]: 0.02

Nc1cccc2c1C(=O)N(C1CCC(=O)NC1=O)C2=O (centres unmarked) [Pomalidomide]
Difference [1, 9]: −0.27 | Cholesterol-free [1, 10]: 1.37 | Complete ([1]; NCI-H292 cells, complete media): 1.095 | Cholesterol-free media + simvastatin (0.04 μM) [2, 6]: 1.093 | Complete Media [2, 7]: 1.03 | Difference [2, 8]: −0.06

COC(=O)N[C@@H](C)CNc1nccc(-c2cn(C(C)C)nc2-c2cc(Cl)cc(NS(C)(=O)=O)c2F)n1 [Encorafenib]
Difference [1, 9]: −0.19 | Cholesterol-free [1, 10]: 0.5021 | Complete ([1]; NCI-H292 cells, complete media): 0.3116 | Cholesterol-free media + simvastatin (0.04 μM) [2, 6]: 0.6063 | Complete Media [2, 7]: 0.5501 | Difference [2, 8]: −0.06

Oc1c(Cl)cc(Cl)cc1Sc1cc(Cl)cc(Cl)c1O [Bithionol]
Difference [1, 3]: −0.09 | Cholesterol-free [1, 4]: 0.9314 | Complete [1, 5]: 0.8442 | Cholesterol-free media + simvastatin (0.04 μM) [2, 23]: 2.228 | Complete Media [2, 24]: 1.353 | Difference [2, 12]: −0.88

CCN(CC)CCOC(=O)C(Cc1cccc2ccccc12)CC1CCCO1.O=C(O)C(=O)O (centres unmarked) [Naftidrofuryl (oxalate)]
Difference [1, 9]: −0.04 | Cholesterol-free [1, 13]: 1.015 | Complete [1, 14]: 0.9733 | Cholesterol-free media + simvastatin (0.04 μM) [2, 6]: 1.139 | Complete Media [2, 7]: 1.076 | Difference [2, 8]: −0.06

CCOC(=O)N1CCC(=C2c3ccc(Cl)cc3CCc3cccnc32)CC1 [Loratadine]
Difference [1, 9]: −0.30 | Cholesterol-free [1, 10]: 1.122 | Complete ([1]; NCI-H292 cells, complete media): 0.8264 | Cholesterol-free media + simvastatin (0.04 μM) [2, 19]: 0.8147 | Complete Media [2, 20]: 0.9097 | Difference [2, 21]: 0.10

COc1c(-c2ccc3cc(NS(C)(=O)=O)ccc3c2)cc(-n2ccc(=O)[nH]c2=O)cc1C(C)(C)C [Dasabuvir]
Cholesterol-free [1, 10]: 1.225 | Complete ([1]; NCI-H292 cells, complete media): 0.8287 | Difference [1, 25]: −0.40 | Cholesterol-free media + simvastatin (0.04 μM) [2, 6]: 1.1 | Complete Media [2, 7]: 1.064 | Difference [2, 8]: −0.04

CCN(CC)CC#CCOC(=O)C(O)(c1ccccc1)C1CCCCC1 (centres unmarked) [Oxybutynin]
Difference [1, 3]: −0.10 | Cholesterol-free [1, 4]: 1.075 | Complete [1, 5]: 0.9761 | Cholesterol-free media + simvastatin (0.04 μM) [2, 11]: 0.7436 | Complete Media [2, 5]: 1.133 | Difference [2, 21]: 0.39

CCOc1nc2cccc(C(=O)O)c2n1Cc1ccc(-c2ccccc2-c2nnn[nH]2)cc1 [Candesartan]
Difference [1, 9]: 0.02 | Cholesterol-free [1, 13]: 0.9494 | Complete [1, 14]: 0.9741 | Cholesterol-free media + simvastatin (0.04 μM) [2, 26]: 1.101 | Complete Media [2, 27]: 0.8684 | Difference [2, 12]: −0.23

O=C(CO)[C@@H](O)[C@H](O)[C@H](O)CO [D-Fructose]
Difference [1, 9]: 0.05 | Cholesterol-free [1, 13]: 1.151 | Complete [1, 14]: 1.203 | Cholesterol-free media + simvastatin (0.04 μM) [2, 26]: 1.284 | Complete Media [2, 27]: 1.053 | Difference [2, 12]: −0.23

N#C[C@@H]1CCCN1C(=O)CNC12CC3CC(CC(O)(C3)C1)C2 [Vildagliptin]
Difference ([1]; Complete minus Cholesterol-free, greater than 0 enhanced anti-cancer activity, about 0 neutral, below 0 antagonists): −0.50 | Cholesterol-free ([1]; NCI-H292 cells in cholesterol-free media without statin): 1.213 | Complete ([1]; NCI-H292 cells in complete media): 0.7138 | Cholesterol-free media + simvastatin (0.04 μM) [2, 11]: 1.588 | Complete Media [2, 5]: 1.466 | Difference [2, 12]: −0.12

CCN(CC)c1ccc(C(=C2C=CC(=[N+](CC)CC)C=C2)c2cc(S(=O)(=O)[O-])ccc2S(=O)(=O)[O-])cc1.[Na+] [Isosulfan blue]
Difference [1, 18]: −0.07 | Cholesterol-free [1, 13]: 1.156 | Complete [1, 14]: 1.087 | Cholesterol-free media + simvastatin (0.04 μM) [2, 15]: 1.148 | Complete Media [2, 16]: 1.247 | Difference [2, 17]: 0.10

C[C@H](CCC(=O)O)[C@H]1CC[C@H]2[C@@H]3[C@@H](O)C[C@@H]4C[C@H](O)CC[C@]4(C)[C@H]3CC[C@]12C [Ursodiol]
Cholesterol-free [1, 10]: 1.392 | Complete ([1]; NCI-H292 cells, complete media): 0.9832 | Difference [1, 25]: −0.41 | Cholesterol-free media + simvastatin (0.04 μM) [2, 11]: 1.413 | Complete Media [2, 5]: 1.314 | Difference [2, 12]: −0.10

C[C@]12CC[C@@H]3c4ccc(O)cc4CC[C@H]3[C@@H]1CCC2=O [Estrone]
Cholesterol-free [1, 10]: 1.426 | Complete ([1]; NCI-H292 cells, complete media): 1.109 | Difference [1, 25]: −0.32 | Cholesterol-free media + simvastatin (0.04 μM) [2, 23]: 1.409 | Complete Media [2, 24]: 1.088 | Difference [2, 12]: −0.32

CC(C)NCC(O)c1ccccc1Cl (centres unmarked) [Clorprenaline hydrochloride]
Cholesterol-free [1, 13]: 0.6182 | Complete [1, 14]: 1.062 | Difference [1, 22]: 0.44 | Cholesterol-free media + simvastatin (0.04 μM) [2, 11]: 0.6832 | Complete Media [2, 5]: 0.8199 | Difference [2, 21]: 0.14
